Data reported in ChEMBL document CHEMBL1201862, “PubChem BioAssay data set” (2004).
“And” between values parts separate entries of the source, which are not always exact repeats. Equal entries are not always repeated. The source made the active and inactive calls.

Tests used:
[1] = system: Streptococcus sp. 'group A'; experiment: growth inhibition of control SK(-) GAS strain, dose response, counter-screen for streptokinase expression inhibitor project, luminescence, kanamycin, BacTiterGlo, confirmation (AID 1900); assay type: functional, organism-based
[2] = Luminescence Cell-Based Dose Retest to Confirm Inhibitors of Cancer Stem Cells. [Related pubchem assays (depositor defined):AID2717, AID2721]; assay type: functional; details: Homo sapiens
Streptococcus = experiment: Group A Streptococcus viability loss, dose response, counter-screen for streptokinase expression inhibitor project, luminescence, BacTiterGlo (AID 1915); assay type: functional, organism-based;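 note: potency for reduction of bacterial viability or growth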
[3] = inhibitors of intracellular T. cruzi replication, confirmation, NIH3T3 host cells, beta-gal luminescence (AID 2044); assay type: functional, cell-based;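 note: intracellular parasites grown in NIH/3T3 mouse fibroblasts as host cells; luminescent beta-galactosidase reporter signal from transgenic T. cruzi replicating inside host cells; inhibitors lower the luminescence signal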
[4] = cytotoxicity toward NIH3T3 fibroblasts, dose response, counter-screen, cell-based, ATP luminescence, mouse fibroblasts (AID 2010); assay type: functional;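 note: cells exposed to compound for about 90 hours before reading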
Cytochrome P450 1A2 = target: T1, Cytochrome P450 1A2 (Homo sapiens, UniProt P05177);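 note: PubChem cytochrome P450 panel assay, CYP1A2 panel member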
T1 sequence (P05177 whole entry): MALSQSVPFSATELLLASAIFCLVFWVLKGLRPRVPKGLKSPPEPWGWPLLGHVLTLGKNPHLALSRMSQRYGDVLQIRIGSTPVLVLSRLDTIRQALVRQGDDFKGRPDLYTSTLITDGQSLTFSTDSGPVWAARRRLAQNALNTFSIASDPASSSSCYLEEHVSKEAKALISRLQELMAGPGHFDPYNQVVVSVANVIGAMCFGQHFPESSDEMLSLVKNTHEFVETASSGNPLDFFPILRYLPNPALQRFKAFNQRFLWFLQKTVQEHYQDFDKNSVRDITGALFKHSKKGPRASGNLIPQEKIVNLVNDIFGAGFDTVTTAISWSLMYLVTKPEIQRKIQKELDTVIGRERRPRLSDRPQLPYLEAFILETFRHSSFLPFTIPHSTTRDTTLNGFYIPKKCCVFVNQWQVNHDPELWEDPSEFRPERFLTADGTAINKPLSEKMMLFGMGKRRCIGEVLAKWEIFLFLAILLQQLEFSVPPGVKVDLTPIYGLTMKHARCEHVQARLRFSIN

Cytochrome P450 3A4 = Cytochrome P450 3A4 (Homo sapiens, UniProt P08684);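 note: CYP3A4 tested as one member of a cytochrome P450 panel screen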
Cytochrome P450 3A4, sequence (P08684 whole entry): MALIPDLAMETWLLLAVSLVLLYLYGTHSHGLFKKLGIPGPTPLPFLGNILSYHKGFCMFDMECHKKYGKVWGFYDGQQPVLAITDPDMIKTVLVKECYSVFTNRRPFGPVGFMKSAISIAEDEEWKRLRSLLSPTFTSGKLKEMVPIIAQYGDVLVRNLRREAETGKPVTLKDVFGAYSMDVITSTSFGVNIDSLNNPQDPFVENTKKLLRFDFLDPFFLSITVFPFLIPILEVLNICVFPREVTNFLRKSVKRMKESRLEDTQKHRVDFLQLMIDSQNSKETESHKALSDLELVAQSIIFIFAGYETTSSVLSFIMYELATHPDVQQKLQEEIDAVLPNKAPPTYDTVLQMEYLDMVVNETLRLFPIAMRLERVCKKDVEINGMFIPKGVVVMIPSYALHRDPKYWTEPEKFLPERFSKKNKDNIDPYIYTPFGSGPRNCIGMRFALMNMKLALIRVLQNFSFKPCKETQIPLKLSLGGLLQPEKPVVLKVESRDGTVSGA

Cytochrome P450 2C19 = Cytochrome P450 2C19 (Homo sapiens, UniProt P33261); experiment: Cytochrome panel assay with activity outcomes. Panel member name: p450-cyp2c19 Compounds with AC50 equal or less than 10 uM are considered active; assay type: functional
Cytochrome P450 2C19, sequence (P33261 whole entry): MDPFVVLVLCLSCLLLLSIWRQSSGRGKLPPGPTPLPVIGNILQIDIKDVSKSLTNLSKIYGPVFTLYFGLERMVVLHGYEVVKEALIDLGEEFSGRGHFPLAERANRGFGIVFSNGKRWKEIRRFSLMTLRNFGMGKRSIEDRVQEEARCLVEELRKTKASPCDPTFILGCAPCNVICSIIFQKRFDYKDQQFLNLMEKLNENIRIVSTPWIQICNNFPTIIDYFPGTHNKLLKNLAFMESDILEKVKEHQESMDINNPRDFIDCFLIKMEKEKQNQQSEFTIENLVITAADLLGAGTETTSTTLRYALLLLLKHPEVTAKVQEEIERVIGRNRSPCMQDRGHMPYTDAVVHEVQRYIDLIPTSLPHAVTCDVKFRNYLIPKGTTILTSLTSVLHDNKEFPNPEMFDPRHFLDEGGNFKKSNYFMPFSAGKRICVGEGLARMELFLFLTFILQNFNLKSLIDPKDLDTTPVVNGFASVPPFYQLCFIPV

Cytochrome P450 2C9 = Cytochrome P450 2C9 (Homo sapiens, UniProt P11712)
Cytochrome P450 2C9, sequence (P11712 whole entry): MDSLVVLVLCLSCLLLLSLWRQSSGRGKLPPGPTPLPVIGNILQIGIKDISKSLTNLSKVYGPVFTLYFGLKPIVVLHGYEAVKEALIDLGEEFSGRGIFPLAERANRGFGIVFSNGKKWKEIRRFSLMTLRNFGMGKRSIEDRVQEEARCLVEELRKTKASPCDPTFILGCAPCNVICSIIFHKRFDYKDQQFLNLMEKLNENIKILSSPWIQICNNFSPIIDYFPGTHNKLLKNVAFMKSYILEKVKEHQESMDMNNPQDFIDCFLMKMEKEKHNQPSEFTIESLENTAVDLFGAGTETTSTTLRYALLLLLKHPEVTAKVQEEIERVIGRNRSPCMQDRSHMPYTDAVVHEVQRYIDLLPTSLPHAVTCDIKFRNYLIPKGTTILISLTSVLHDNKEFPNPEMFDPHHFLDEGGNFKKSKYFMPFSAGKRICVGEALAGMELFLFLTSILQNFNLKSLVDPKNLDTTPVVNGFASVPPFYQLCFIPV

CCc1c(C2(O)CCCCC2)[nH]c2c(C(=O)OC)cc(Cl)cc12
EC50 [1]: 2.62 µM (active) | AC50 [2]: 1.89 µM (active) | EC50 (Streptococcus): 5.96 µM (active)

COc1cc(OC)cc(-c2sc3ccc(OC)cc3c2C#CCCO)c1
AC50 [2]: 4 µM (active)

COc1ccc(C)cc1NC(=O)c1ccc([N+](=O)[O-])cc1[N+](=O)[O-]
EC50 [3]: 1.18 µM (active) | EC50 [4]: > 60 µM (not active)

CCn1c(-c2ccccc2)cnc1S
EC50 [1]: > 150 µM (not active) | EC50 (Streptococcus): > 150 µM (not active)

Cc1c(-c2cccc(Cl)c2)nc2ccccc2c1C(=O)OC/C(O)=C(\C#N)c1nc2ccccc2[nH]1
EC50 [1]: 2.23 µM (active) | AC50 [2]: 1.75 µM (active) | EC50 (Streptococcus): 2.6 µM (active)

CN(C)CCCN1c2ccccc2Sc2cnccc21
AC50 (Cytochrome P450 1A2): 0.501 µM (inconclusive)

CN1CCN(c2nc(-c3ccoc3)nc3ccccc23)CC1
AC50 (Cytochrome P450 3A4): 20 µM (inconclusive)

N#CCCn1c(=O)cnc2cnc(N3CCOCC3)nc21
AC50 (Cytochrome P450 2C19): inconclusive

CCOC(=O)c1c(NC(=O)Nc2ccccc2)sc(C)c1C
AC50 (Cytochrome P450 3A4): 25.1 µM (inconclusive)

CCOCCCNCc1ccc(OCCC(C)C)c(OC)c1
EC50 [3]: 0.17 µM (active) | EC50 [4]: > 60 µM (not active)

COc1ccc(NS(=O)(=O)c2cccc(C(=O)NC3CCN(Cc4ccccc4)CC3)c2)cc1
EC50 [3]: 0.318 µM (active) | EC50 [4]: > 30 µM (not active)

COc1cccc(-c2sc3ccc(OC)cc3c2-c2ccc(O)cc2)c1
AC50 [2]: 2.67 µM (active)

N#Cc1cccc(-c2ccc3ncnc(NC4CCNCC4)c3c2)c1
AC50 (Cytochrome P450 2C19; read-out: AC50): 25.1 µM (inconclusive)

CN(C)CCCNC(=O)CCc1nc(O)c2ccccc2n1
AC50 (Cytochrome P450 2C9): 1 µM (inconclusive) | AC50 (Cytochrome P450 2C19; read-out: AC50): 7.08 µM (inconclusive)

COc1ccccc1-c1nc(NCc2ccccc2)c2ccccc2n1
AC50 (Cytochrome P450 2C19; read-out: AC50): 25.1 µM (inconclusive)

CCn1c(C)nc2cc(C(=O)NNS(=O)(=O)c3ccccc3F)ccc21
AC50 (Cytochrome P450 2C9): 20 µM (inconclusive)

COc1cccc(Cn2c(=O)c(-c3ccccc3)nc3cnc(N4CCN(C)CC4)nc32)c1
AC50 (Cytochrome P450 3A4): 31.6 µM (inconclusive)

Cc1cccc(OC(=O)CN2C(=O)C3C4CCC(C4)C3C2=O)c1C (stereo unspecified)
AC50 (Cytochrome P450 2C9): 2 µM (inconclusive)

C=CCNc1nc(Cl)nc(Nc2ccc(OC)cc2)n1
AC50 (Cytochrome P450 2C19; read-out: AC50): 0.224 µM (inconclusive)

CC(=O)Nc1ccc(OCC(O)Cn2c3ccccc3c3ccccc32)c(C)c1 (stereo unspecified)
EC50 [3]: 2.11 µM (active) | EC50 [4]: 9.57 µM (active)

CCCc1[nH]c2ccc(C#N)cc2c1CCC
AC50 [2]: 4.21 µM (active)

CN1CCN(c2ncncc2-c2ccccc2Cl)CC1
AC50 (Cytochrome P450 1A2): 2.51 µM (inconclusive)

CCN1CCN(c2ccc(S(=O)(=O)N3CCCCC3)cc2NC(=O)c2cc3ccccc3o2)CC1
EC50 [3]: 0.31 µM (active) | EC50 [4]: > 30 µM (not active)

COc1ccc(C(CCN)Cc2ccccc2)cc1 (stereo unspecified)
EC50 [4]: > 30 µM (not active)

CO[C@@H]1COC(=O)C/C=C\[C@@H](C)[C@H](OC)COC(=O)[C@H](COCc2ccccc2)NC(=O)C/C=C\[C@H]1C
AC50 (Cytochrome P450 3A4): 5.01 µM (inconclusive) | AC50 (Cytochrome P450 2C19; read-out: AC50): 2 µM (inconclusive)

CN1C(=O)C(C2c3ccccc3C(=O)N2Cc2ccc([N+](=O)[O-])cc2)C(=O)N(C)C1=O (stereo unspecified)
AC50 (Cytochrome P450 2C19; read-out: AC50): 14.1 µM (inconclusive)

N[C@@H](Cn1oc(=O)[nH]c1=O)C(=O)O [QUISQUALATE]
AC50 (Cytochrome P450 3A4): 1 µM (inconclusive) | AC50 (Cytochrome P450 1A2): 39.8 µM (inconclusive)

CCCCCCCCCCCCN1[C@@H](CC(C)=O)c2cc(F)ccc2S1(=O)=O
AC50 [2]: 5.3 µM (active)

COC(=O)CSc1ccc(C#N)c(SCC(=O)OC)c1
AC50 (Cytochrome P450 2C9): 20 µM (inconclusive)

N#CCCn1c(=O)cnc2cnc(OCc3ccccc3)nc21
AC50 (Cytochrome P450 2C19): inconclusive

CN(C)CCCN(C(=O)/C=C/c1cccs1)c1nc2c(F)cccc2s1
EC50 [3]: 1.86 µM (active) | EC50 [4]: > 60 µM (not active)

CC12CN3CC(C)(CN(C1)C3c1ccc([N+](=O)[O-])o1)C2=O (stereo unspecified)
EC50 [3]: 0.784 µM (active) | EC50 [4]: > 60 µM (not active)

Cc1cc(C)cc(Oc2nn[nH]n2)c1
AC50 (Cytochrome P450 2C9): 7.08 µM (inconclusive)

COC(=O)N1CC(=O)N(OC)C1c1ccc(Cl)cc1Cl (stereo unspecified)
AC50 (Cytochrome P450 2C9): 0.316 µM (inconclusive)

COc1ccc(-n2c(=O)c(CCc3ccccc3)nc3cnc(N(C)C)nc32)cc1
AC50 (Cytochrome P450 3A4): 3.16 µM (inconclusive) | AC50 (Cytochrome P450 1A2): 3.16 µM (inconclusive)

O=C(c1ccc(C#CC2(O)CCCCC2)cc1)N1CCN(C(c2ccccc2)c2ccccc2)CC1
AC50 [2]: 0.482 µM (active)

COc1ccccc1-c1nc(N2CCN(C)CC2)c2ccccc2n1
AC50 (Cytochrome P450 3A4): 31.6 µM (inconclusive)

CCn1c2ccccc2c2cc(/N=C3/SC(CC(=O)Nc4ccccc4OC)C(=O)N3C)ccc21 (stereo unspecified)
AC50 (Cytochrome P450 3A4): 2.82 µM (inconclusive)

Cc1cc(C)c(S(=O)(=O)NCC2CCC(C(=O)NCc3ccc4c(c3)OCO4)CC2)c(C)c1 (stereo unspecified)
AC50 (Cytochrome P450 1A2): 17.8 µM (inconclusive)

c1ccc(CNc2ncncc2-c2ccoc2)cc1
AC50 (Cytochrome P450 2C9): 0.501 µM (inconclusive)

COC(=O)c1c(-c2cc(OC)c(OC)c(OC)c2)c2ccc(OCc3ccccn3)cc2c(=O)n1-c1ccc(N)cc1
AC50 (Cytochrome P450 2C19; read-out: AC50): 10 µM (inconclusive)

COc1ccc(-c2nc3cnc(OC)nc3n(C3CC3)c2=O)cc1
AC50 (Cytochrome P450 3A4): 0.0501 µM (inconclusive)

CC(C)(C)NC[C@@H](O)COc1cccc2[nH]c(C#N)cc12
AC50 (Cytochrome P450 1A2): 31.6 µM (inconclusive)

O=C(NC1CCN(Cc2ccccc2)CC1)c1ccc(Cn2c(=S)[nH]c3ccc(N4CCOCC4)cc3c2=O)cc1
EC50 [3]: 1.3 µM (active) | EC50 [4]: 10.4 µM (active)

Cc1ccc(CNC(=O)[C@H]2C[C@@H]2[C@H](NP(=O)(c2ccccc2)c2ccccc2)c2ccccc2)c(F)c1F
AC50 (Cytochrome P450 2C19; read-out: AC50): 0.0398 µM (inconclusive)

COc1ccccc1CN1CCCC2(CCN(C(=O)c3cccn3C)CC2)C1
AC50 (Cytochrome P450 3A4): 20 µM (inconclusive)

O=C(CCN1C(=O)C2C3C=CC(C3)C2C1=O)Nc1c(F)cccc1F (stereo unspecified)
AC50 (Cytochrome P450 2C19; read-out: AC50): 39.8 µM (inconclusive)

O=C(NCC1CCCC(CNC(=O)Nc2ccc(Cl)cn2)C1)Nc1ccc(Cl)cn1 (stereo unspecified)
EC50 [3]: 1.18 µM (active) | EC50 [4]: > 60 µM (not active)

COC(=O)[C@@]1(Cc2ccccc2)[C@H]2c3cc(C(=O)N4CCCC4)n(CCO)c3C[C@H]2CN1C(=O)c1ccccc1
AC50 (Cytochrome P450 2C19; read-out: AC50): 0.00794 µM (inconclusive)

Fc1ccc(CSc2nnc(-c3cc4c(s3)-c3ccccc3CC4)o2)cc1
AC50 (Cytochrome P450 3A4): 15.8 µM (inconclusive) | AC50 (Cytochrome P450 2C19): inconclusive

CCCc1nnc(NC(=O)C(CC)OC(=O)c2cc(C)nc3ccccc23)s1 (stereo unspecified)
AC50 (Cytochrome P450 2C19; read-out: AC50): 15.8 µM (inconclusive) | AC50 (Cytochrome P450 1A2): 15.8 µM (inconclusive)

Cc1cccc(-n2cc(CN(C)Cc3nccn3C)c(-c3cccc(F)c3)n2)c1
EC50 [3]: 1.79 µM (active) | EC50 [4]: 11.8 µM (active) | AC50 [2]: 13.5 µM (active)

CC1(C)CCCN(C(=O)N2c3ccccc3Sc3ccccc32)C1
AC50 (Cytochrome P450 2C9): 15.8 µM (inconclusive)

Cc1ccc(C2C(=O)N(C3CCCC3)CC(=O)N2CC2COc3ccccc3O2)cc1 (stereo unspecified)
AC50 (Cytochrome P450 1A2): 39.8 µM (inconclusive)

CN(C)CCCN(C(=O)COc1ccc(Cl)cc1)c1nc2c(F)cccc2s1
EC50 [3]: 0.128 µM (active) | EC50 [4]: > 60 µM (inconclusive)

CCOc1nc(NC(C)C)nc(NC(C)C)n1
AC50 (Cytochrome P450 1A2): 5.01 µM (inconclusive)

COc1ccccc1N1CCN(C[C@@H](O)COc2cccc3ccccc23)CC1
AC50 (Cytochrome P450 1A2): 12.6 µM (inconclusive) and 31.6 µM (inconclusive) and 20 µM (inconclusive)

COc1cccc(Nc2nc(N)nc(CCl)n2)c1
EC50 [3]: 1.7 µM (active) | EC50 [4]: 4.11 µM (active)

O=C(CCN1CCc2ccccc2C1)Nc1ccc(F)cc1
AC50 (Cytochrome P450 3A4): 15.8 µM (inconclusive) | AC50 (Cytochrome P450 1A2): 0.398 µM (inconclusive)

Cc1cc(C)n(C(=O)c2cc3c(s2)CCCC3)n1
AC50 (Cytochrome P450 3A4): 39.8 µM (inconclusive) | AC50 (Cytochrome P450 2C19; read-out: AC50): 2.24 µM (inconclusive)
